EP4714938A1, “HDAC1/2 SELECTIVE INHIBITOR AND USE THEREOF” (Wigen Biomedicine Technology (Shanghai) Co., Ltd., priority 2023, dated 2024)
Where two headings read alike, the source gives them in different places.

Assays:
[1] = molecular target: HDAC1 (Homo sapiens, UniProt Q13547); assay: HDAC enzyme inhibitory activity, FRET method; format: biochemical; settings: read-out: IC50 HDAC1
Procedure: The compounds of the present disclosure were assayed for enzyme inhibitory activity against various subtypes of HDAC enzymes by the FRET method. The various subtypes of HDAC enzymes were obtained either through purification or direct purchase of assay kits.
The specific method was as follows: The enzyme was added to a 384-well plate, and a reaction buffer was added to the control well. Serially diluted DMSO sample solutions were added to the reaction wells, and the plate was incubated at room temperature for 15 min. Then a chromogenic agent was added to stop the reaction, and fluorescence was generated. The fluorescence intensity was measured using an EnVision multi-label microplate reader (excitation: 355 nm, emission: 460 nm). The endpoint value was read after the color development reached stability. The inhibition IC50 of the compounds was calculated using GraphPad Prism4 software relative to DMSO.

[2] = Stability in liver microsomes; format: in vitro ADME; settings: for half-life at 1 µM: 1 µM compound, 37 °C, NADPH regeneration system
Procedure: After the 1 µM compound was individually incubated at 37 °C for various durations with […] liver microsomes from humans, monkeys, beagles, rats, or mice in the presence of an NADPH regeneration system, LC-MS-MS was used to analyze the remaining amount of the compound, and T1/2 was calculated. Table 10. Evaluation results of stability of compounds of the present disclosure in human and mouse liver microsomes

[3] = molecular target: HDAC2 (Homo sapiens, UniProt Q92769); assay: HDAC enzyme inhibitory activity, FRET method; format: biochemical; settings: read-out: IC50 HDAC2
[4] = molecular target: HDAC3 (Homo sapiens, UniProt O15379); assay: HDAC enzyme inhibitory activity, FRET method; format: biochemical; settings: read-out: IC50 HDAC3
[5] = test system: H3K 27 Acetyl lysine; assay: Intracellular H3K 27 acetyl lysine level by ELISA in HeLa cells; format: cell-based; settings: 24 h of treatment
Procedure: (§1) HeLa cells were seeded into a 96-well plate at 20000 cells/well. After overnight adherence culture, the serially diluted compound was added. After 24 h of treatment, intracellular levels of acetyl lysine and H3K 27 acetyl lysine were quantified by ELISA. Table 8. Effect of compound of the present disclosure on levels of acetyl lysine and H3K 27 acetyl lysine

[6] = test system: 293T cell; assay: Inhibition of cell proliferation (CTG, intracellular ATP); format: cell-based; settings: Homo sapiens, HEK-293T, 72 h
Procedure: (§2) Jurkat or 293T cells were seeded into a 96-well plate at 3000 cells/well. After overnight adherence culture, the serially diluted compound in DMSO was added. After 72 h, the intracellular ATP level was determined by CTG. The IC50 for the inhibition of cell proliferation by the compounds was calculated compared to the DMSO group. Table 7. Inhibitory activity of compounds of the present disclosure against Jurkat/293T cell proliferation (IC50, µM)

[7] = test system: Jurkat cell; assay: as above; format: cell-based; settings: Homo sapiens, Jurkat, 72 h
Procedure: as §2

[8] = test system: Acetyl lysine; assay: Intracellular acetyl lysine level by ELISA in HeLa cells; format: cell-based; settings: 24 h of treatment
Procedure: as §1

HDAC3, sequence (O15379 whole entry, species assumed): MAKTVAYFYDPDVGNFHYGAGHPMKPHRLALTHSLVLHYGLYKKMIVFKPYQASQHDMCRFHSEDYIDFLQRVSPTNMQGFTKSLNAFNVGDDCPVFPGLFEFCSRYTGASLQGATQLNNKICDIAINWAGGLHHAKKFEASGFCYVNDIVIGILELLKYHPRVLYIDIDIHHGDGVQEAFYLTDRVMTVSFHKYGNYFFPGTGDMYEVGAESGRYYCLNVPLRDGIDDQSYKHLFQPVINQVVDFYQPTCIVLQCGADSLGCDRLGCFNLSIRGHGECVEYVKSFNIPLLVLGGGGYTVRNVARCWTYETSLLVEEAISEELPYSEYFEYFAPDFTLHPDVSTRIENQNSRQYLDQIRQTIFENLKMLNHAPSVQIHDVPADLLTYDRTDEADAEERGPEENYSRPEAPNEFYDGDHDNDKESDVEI
HDAC3, sequence (Q9Y618 395-489 partner limits assumed, species assumed): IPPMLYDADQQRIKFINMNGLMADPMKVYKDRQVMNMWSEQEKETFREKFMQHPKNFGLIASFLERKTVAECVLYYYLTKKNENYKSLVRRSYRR
HDAC1, sequence (Q13547 whole entry, species assumed): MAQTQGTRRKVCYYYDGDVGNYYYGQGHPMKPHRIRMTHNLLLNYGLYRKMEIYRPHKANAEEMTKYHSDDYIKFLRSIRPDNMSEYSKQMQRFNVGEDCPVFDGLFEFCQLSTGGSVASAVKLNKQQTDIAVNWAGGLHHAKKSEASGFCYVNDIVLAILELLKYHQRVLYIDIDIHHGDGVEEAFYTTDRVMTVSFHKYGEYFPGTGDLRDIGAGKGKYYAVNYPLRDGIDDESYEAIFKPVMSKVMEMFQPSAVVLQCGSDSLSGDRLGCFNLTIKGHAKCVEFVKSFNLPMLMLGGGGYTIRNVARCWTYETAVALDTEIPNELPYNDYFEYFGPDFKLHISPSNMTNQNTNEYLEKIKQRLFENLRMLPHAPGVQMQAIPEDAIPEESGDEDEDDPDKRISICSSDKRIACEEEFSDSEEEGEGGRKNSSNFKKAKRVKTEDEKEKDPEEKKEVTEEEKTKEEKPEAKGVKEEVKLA
HDAC2, sequence (Q92769 whole entry, species assumed): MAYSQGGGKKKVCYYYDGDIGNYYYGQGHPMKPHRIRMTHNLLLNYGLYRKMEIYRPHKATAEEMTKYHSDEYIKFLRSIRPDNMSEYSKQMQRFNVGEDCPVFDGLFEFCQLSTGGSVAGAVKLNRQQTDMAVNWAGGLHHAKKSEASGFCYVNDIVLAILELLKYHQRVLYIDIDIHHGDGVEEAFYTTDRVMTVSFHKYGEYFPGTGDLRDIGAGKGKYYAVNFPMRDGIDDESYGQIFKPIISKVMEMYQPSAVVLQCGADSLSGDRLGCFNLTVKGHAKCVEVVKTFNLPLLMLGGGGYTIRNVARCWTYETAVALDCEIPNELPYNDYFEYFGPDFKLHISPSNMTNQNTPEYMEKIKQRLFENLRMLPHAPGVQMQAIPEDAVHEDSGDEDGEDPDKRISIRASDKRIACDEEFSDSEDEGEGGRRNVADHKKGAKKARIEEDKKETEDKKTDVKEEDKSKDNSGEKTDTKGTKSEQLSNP

Row | Compound | IC50 ([1]; Table 5) [nM] | CLint scaled at 1 µM ([2]; Human liver microsomes) [mL/min/kg] | Clliver ([2]; Human liver microsomes) [mL/min/kg] | half-life at 1 µM ([2]; Human liver microsomes) [min] | CLint scaled at 1 µM ([2]; Mouse liver microsomes) [mL/min/kg] | Clliver ([2]; Mouse liver microsomes) [mL/min/kg] | half-life at 1 µM ([2]; Mouse liver microsomes) [min] | IC50 ([3]; Table 5) [nM] | IC50 ([4]; Table 5) [µM] | H3K 27 Acetyl lysine Maximum (%) [5] [%] | H3K 27 Acetyl lysine Minimum effective concentration [5] [nM] | IC50 [6] [µM] | IC50 [7] [nM] | IC50 ([1]; Table 4) [nM] | IC50 ([3]; Table 4) [nM] | IC50 ([4]; Table 4) [µM] | Acetyl lysine Maximum (%) [8] [%] | Acetyl lysine Minimum effective concentration [8] [nM]
1 | CS(C)(=O)=Nc1ccc(C(=O)Nc2cc(-c3ccc(F)s3)ccc2N)cc1 [Compound 33] | < 30 | 8.26 | 5.91 | 210 | 0.45 | 0.45 | 12000 | 30 to 300 | > 3 | – | – | – | – | – | – | – | – | –
2 | Nc1ccc(-c2ccc(F)cc2)cc1NC(=O)c1ccc(N=S2(=O)CCCC2)cc1 [Compound 57] | < 30 | 7.51 | 5.51 | 231 | 33 | 24.16 | 165 | 30 to 300 | > 3 | – | – | – | – | – | – | – | – | –
3 | CN1CCS(=O)(=Nc2ccc(C(=O)Nc3cc(-c4ccc(F)cc4)ccc3N)cc2)CC1 [Compound 67] | < 30 | – | – | – | – | – | – | 30 to 300 | > 3 | 300 | 16 | > 10 | 300 | < 500 | < 500 | > 5 | 570 | 16
